{"source": "ChEMBL document CHEMBL4706484", "about": "“Apigenin-rivastigmine hybrids as multi-target-directed liagnds for the treatment of Alzheimer's disease” (Eur J Med Chem, 2020)", "key": {"Cholinesterase": {"target": "Cholinesterase (Homo sapiens, UniProt P06276)", "sequence (P06276 whole entry)": "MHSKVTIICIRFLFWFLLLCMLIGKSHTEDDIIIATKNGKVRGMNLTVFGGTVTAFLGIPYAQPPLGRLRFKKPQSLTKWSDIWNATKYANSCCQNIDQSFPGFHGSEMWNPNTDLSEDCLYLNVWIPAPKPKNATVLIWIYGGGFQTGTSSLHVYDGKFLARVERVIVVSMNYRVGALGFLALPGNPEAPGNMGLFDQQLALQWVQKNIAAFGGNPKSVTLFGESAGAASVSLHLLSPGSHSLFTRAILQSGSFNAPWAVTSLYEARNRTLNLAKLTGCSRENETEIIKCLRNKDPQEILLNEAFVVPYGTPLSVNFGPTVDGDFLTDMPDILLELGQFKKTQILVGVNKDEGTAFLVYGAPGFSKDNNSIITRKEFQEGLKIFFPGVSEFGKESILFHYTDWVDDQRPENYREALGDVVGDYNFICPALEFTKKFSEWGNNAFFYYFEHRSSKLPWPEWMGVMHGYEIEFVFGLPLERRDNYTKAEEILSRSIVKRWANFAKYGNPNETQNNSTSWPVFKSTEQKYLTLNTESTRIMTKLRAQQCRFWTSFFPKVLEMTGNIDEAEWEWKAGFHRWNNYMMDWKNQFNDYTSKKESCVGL", "assay": "Inhibition of human serum BChE using acetylthiocholine iodide as substrate measured after 15 mins by Ellman's method", "format": "cell-free"}, "[1]": {"assay": "Acute toxicity in 2 dpf zebrafish assessed as degenerating trunk muscle within somite at 1.39 to 12.5 ug/ml measured after 3 days", "format": "tissue-based, Danio rerio", "settings": "in vivo, 72 h, dose 1.39-12.5 µg/ml, time 3 day"}, "[2]": {"assay": "Acute toxicity in 2 dpf zebrafish assessed as absent blood flow at 1.39 to 12.5 ug/ml measured after 3 days", "format": "tissue-based, Danio rerio", "settings": "72 h, dose 1.39-12.5 µg/ml, time 3 day"}, "[3]": {"assay": "Cytotoxicity against human L02 cells assessed as cell viability at 25 uM measured after 72 hrs by MTT assay relative to control", "format": "cell-based", "settings": "read-out: Activity"}, "[4]": {"target": "Amyloid-beta precursor protein (Homo sapiens) (UniProt P05067)", "sequence (P05067 whole entry)": "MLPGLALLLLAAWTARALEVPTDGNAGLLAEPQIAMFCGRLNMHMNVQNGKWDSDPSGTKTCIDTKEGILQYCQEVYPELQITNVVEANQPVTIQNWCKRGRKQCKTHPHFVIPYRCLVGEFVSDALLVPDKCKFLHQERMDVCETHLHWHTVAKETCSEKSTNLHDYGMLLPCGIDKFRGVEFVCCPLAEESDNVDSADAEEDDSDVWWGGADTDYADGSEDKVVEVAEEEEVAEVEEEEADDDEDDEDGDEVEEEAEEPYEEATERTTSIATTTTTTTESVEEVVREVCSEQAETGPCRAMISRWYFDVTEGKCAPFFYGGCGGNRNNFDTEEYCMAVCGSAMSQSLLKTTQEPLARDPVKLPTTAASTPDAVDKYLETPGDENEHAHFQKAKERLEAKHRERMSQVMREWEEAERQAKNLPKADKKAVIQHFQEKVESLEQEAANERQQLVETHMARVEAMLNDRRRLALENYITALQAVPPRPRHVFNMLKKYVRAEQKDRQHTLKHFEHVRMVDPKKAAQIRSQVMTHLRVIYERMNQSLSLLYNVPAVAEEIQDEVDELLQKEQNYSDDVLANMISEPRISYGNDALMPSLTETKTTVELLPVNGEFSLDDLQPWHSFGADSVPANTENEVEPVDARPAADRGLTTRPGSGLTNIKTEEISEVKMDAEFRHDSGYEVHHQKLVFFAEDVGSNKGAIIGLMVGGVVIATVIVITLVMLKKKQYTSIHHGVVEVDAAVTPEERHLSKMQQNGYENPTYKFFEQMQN", "assay": "Disaggregation of self-induced amyloid beta (1 to 42) (unknown origin) preformed fibrils at 25 uM by ThT fluorescence assay relative to control"}, "[5]": {"assay": "Cytotoxicity against human L02 cells assessed as cell viability at 12.5 uM measured after 72 hrs by MTT assay relative to control", "format": "cell-based", "settings": "read-out: Activity"}, "Acetylcholinesterase": {"target": "T1, Acetylcholinesterase (Rattus norvegicus, UniProt P37136)", "T1 sequence (P37136 whole entry)": "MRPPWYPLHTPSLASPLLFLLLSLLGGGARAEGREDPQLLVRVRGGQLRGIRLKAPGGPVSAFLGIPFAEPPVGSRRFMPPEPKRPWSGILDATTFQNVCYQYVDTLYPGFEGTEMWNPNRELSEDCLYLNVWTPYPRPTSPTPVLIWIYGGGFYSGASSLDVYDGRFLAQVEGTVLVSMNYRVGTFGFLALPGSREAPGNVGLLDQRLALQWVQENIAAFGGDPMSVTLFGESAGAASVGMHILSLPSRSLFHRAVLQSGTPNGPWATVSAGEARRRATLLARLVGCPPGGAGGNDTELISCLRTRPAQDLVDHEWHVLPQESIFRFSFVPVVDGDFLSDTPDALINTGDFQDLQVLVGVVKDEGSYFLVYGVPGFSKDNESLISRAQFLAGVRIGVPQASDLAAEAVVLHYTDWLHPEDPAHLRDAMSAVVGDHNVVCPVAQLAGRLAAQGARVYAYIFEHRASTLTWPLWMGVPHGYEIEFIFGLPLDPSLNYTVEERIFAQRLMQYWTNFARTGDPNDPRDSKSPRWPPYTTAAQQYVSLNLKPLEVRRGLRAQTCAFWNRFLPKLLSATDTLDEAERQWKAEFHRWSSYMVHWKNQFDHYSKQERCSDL", "assay": "Inhibition of rat cortex AChE using acetylthiocholine iodide as substrate measured after 15 mins by Ellman's method", "format": "tissue-based"}, "[6]": {"assay": "Disaggregation of Copper-induced amyloid beta (1 to 42) (unknown origin) preformed fibrils at 25 uM by ThT fluorescence assay relative to control"}, "L02": {"system": "L02", "assay": "Hepatoprotective activity H2O2-induced cell injury in human L02 cells assessed as cell viability at 10 uM measured after 48 hrs by MTT assay (reference value: 56.89 %)", "format": "functional", "settings": "read-out: Activity"}, "Danio rerio [7]": {"organism": "Danio rerio", "assay": "Protection against amyloid beta (1 to 40 residues)-induced vascular injury in transgenic zebrafish assessed as efficacy on motility at 4.2 ug/ml relative to control", "format": "functional", "settings": "dose 4.2 µg/ml"}, "[8]": {"assay": "Toxicity in 3 dpf zebrafish model of AlCl3-induced AD assessed as minimum toxic concentration", "set-up": "species or system Danio rerio", "settings": "in vivo"}, "[9]": {"assay": "Acute toxicity in 2 dpf zebrafish assessed as small or misshapen eyes at 1.39 to 12.5 ug/ml measured after 3 days", "set-up": "species or system Danio rerio", "settings": "in vivo, 72 h, dose 1.39-12.5 µg/ml, time 3 day"}, "[10]": {"assay": "Drug metabolism in rat intestine assessed as metabolite formation by UPLC-MS/MS analysis", "format": "ADME, tissue-based"}, "[11]": {"assay": "Disaggregation of Copper-induced amyloid beta (1 to 42) (unknown origin) preformed fibrils measured after 48 hrs by TEM analysis"}, "[12]": {"assay": "Acute toxicity in 2 dpf zebrafish assessed as slow blood flow at 1.39 to 12.5 ug/ml measured after 3 days", "format": "tissue-based, Danio rerio", "settings": "72 h, dose 1.39-12.5 µg/ml, time 3 day"}, "[13]": {"assay": "Acute toxicity in Kunming mouse at 1000 mg/kg", "format": "organism-based", "settings": "in vivo"}, "Mus musculus [14]": {"system": "Mus musculus", "assay": "Antialzheimer activity in scopolamine-induced Kunming mouse model of memory impairment assessed as total mapped in brain hippocampus at 10 mg/kg by illumina sequencing method (reference value: 97.13 %)", "format": "functional"}, "Danio rerio [15]": {"organism": "Danio rerio", "assay": "Protection against amyloid beta (1 to 40 residues)-induced vascular injury in transgenic zebrafish assessed as vascular injury rate at 1.4 ug/ml (reference value: 73.3 %)", "format": "functional", "settings": "dose 1.4 µg/ml"}, "[16]": {"assay": "Toxicity in 3 dpf zebrafish model of AlCl3-induced AD at 12.5 to 200 microg/ml", "set-up": "species or system Danio rerio", "settings": "in vivo, dose 12.5-200 µg/ml"}, "PC-12 [17]": {"system": "PC-12", "assay": "Neuroprotective activity against H2O2-induced cell injury in rat PC-12 cells assessed as increase in cell viability causing decrease in LDH content preincubated for 2 hrs followed by H2O2 addition and measured after 24 hrs by LDH assay", "format": "functional, cell-based", "settings": "dose 5-10 µM, time 26.0 hrs"}, "[18]": {"assay": "Acute toxicity in 2 dpf zebrafish assessed as yolk sac absorption delay at 1.39 ug/ml measured after 3 days", "set-up": "species or system Danio rerio", "settings": "in vivo, 72 h, dose 1.39 µg/ml, time 3 day"}, "Danio rerio [19]": {"organism": "Danio rerio", "assay": "Antialzheimer activity against 3 dpf zebrafish model of AlCl3-induced AD assessed as efficacy on motility distance at 4.2 ug/ml relative to control", "format": "functional", "settings": "dose 4.2 µg/ml"}, "PC-12 [20]": {"system": "PC-12", "assay": "Neuroprotective activity against H2O2-induced cell injury in rat PC-12 cells assessed as cell viability at 5 uM preincubated for 2 hrs followed by H2O2 addition and measured after 24 hrs by MTT assay (reference value: 53.8 %)", "format": "functional", "settings": "time 26 hrs, read-out: Activity"}, "Mus musculus [21]": {"system": "Mus musculus", "assay": "Reversal of scopolamine-induced Kunming mouse model of memory impairment assessed as spontaneous alteration at 10 mg/kg by Y-maze test (reference value: 41.6 %)", "format": "functional"}, "[22]": {"assay": "Acute toxicity in 2 dpf zebrafish assessed as kidney edema at 1.39 to 12.5 ug/ml measured after 3 days", "set-up": "species or system Danio rerio", "settings": "in vivo, 72 h, dose 1.39-12.5 µg/ml, time 3 day"}, "[23]": {"assay": "Acute toxicity in 2 dpf zebrafish assessed as short or misshapen jaw at 1.39 to 12.5 ug/ml measured after 3 days", "set-up": "species or system Danio rerio", "settings": "in vivo, 72 h, dose 1.39-12.5 µg/ml, time 3 day"}, "SH-SY5Y": {"system": "SH-SY5Y", "assay": "Neuroprotective activity against amyloid beta (1 to 42 residues)-induced cell injury in human SH-SY5Y cells assessed as cell viability at 10 uM preincubated for 2 hrs followed by H2O2 addition and measured after 24 hrs by MTT assay (reference value: 52.3 %)", "format": "functional", "settings": "time 26 hrs, read-out: Activity"}, "[24]": {"assay": "Acute toxicity in 2 dpf zebrafish assessed as precipitation at 20 ug/ml measured after 3 days", "set-up": "species or system Danio rerio", "settings": "in vivo, 72 h, dose 20 µg/ml, time 3 day"}, "[25]": {"target": "Amyloid-beta precursor protein (Homo sapiens) (UniProt P05067)", "assay": "Inhibition of self-induced amyloid beta (1 to 42) (unknown origin) aggregation at 25 uM measured after 24 hrs by TEM analysis"}, "Danio rerio [26]": {"organism": "Danio rerio", "assay": "Antialzheimer activity against 3 dpf zebrafish model of AlCl3-induced AD assessed as motility by measuring change in speed at 12.5 ug/ml (reference value: 1.05 mm/s)", "format": "functional", "settings": "dose 12.5 µg/ml"}, "[27]": {"assay": "Acute toxicity in 2 dpf zebrafish assessed as yolk sac absorption delay at 12.5 ug/ml measured after 3 days relative to control", "set-up": "species or system Danio rerio", "settings": "in vivo, 72 h, at 12.5 µg/mL, time 3 day"}}, "note": "pIC50: −log10 of the molar value. The source made the active and inactive calls. The rule behind the calls is not given here.", "data": [{"molecule": "CCN(C)C(=O)Oc1ccc(-c2cc(=O)c3c(O)cc(OC(=O)N(C)CC)cc3o2)cc1", "values": [{"measurement": "pIC50", "setting": "Cholinesterase", "value": 4.79}, {"measurement": "Activity", "setting": "[1]", "value": "Non-Toxic"}, {"measurement": "Activity", "setting": "[2]", "value": "Non-Toxic"}, {"measurement": "viability at 72 h, 25 µM", "setting": "[3]", "value": 83.9, "unit": "%"}, {"measurement": "Activity", "setting": "[4]", "value": 66.2, "unit": "%"}, {"measurement": "viability at 72 h, 12.5 µM", "setting": "[5]", "value": 95.6, "unit": "%"}, {"measurement": "pIC50", "setting": "Acetylcholinesterase", "value": 5.33}, {"measurement": "Activity", "setting": "[6]", "value": 64.6, "unit": "%"}, {"measurement": "viability at 10 µM", "setting": "L02", "value": 75.6, "unit": "%"}, {"measurement": "Efficacy", "setting": "Danio rerio [7]", "value": 27, "unit": "%"}, {"measurement": "MTC", "setting": "[8]", "value": 12.5, "unit": "µg/mL"}, {"measurement": "Activity", "setting": "[9]", "value": "Non-Toxic"}, {"measurement": "Drug metabolism", "setting": "[10]", "value": "Metabolite_Detected"}, {"measurement": "Activity", "setting": "[11]", "value": "Active"}, {"measurement": "Activity", "setting": "[12]", "value": "Non-Toxic"}, {"measurement": "Activity", "setting": "[13]", "value": "Non-Toxic"}, {"measurement": "Activity", "setting": "Mus musculus [14]", "value": 96.87, "unit": "%"}, {"measurement": "Activity", "setting": "Danio rerio [15]", "value": 60, "unit": "%"}, {"measurement": "Activity", "setting": "[16]", "value": "Non-Toxic"}, {"measurement": "Activity", "setting": "PC-12 [17]", "value": "Dose-dependent effect"}, {"measurement": "Activity", "setting": "[18]", "value": "Non-Toxic"}, {"measurement": "Efficacy", "setting": "Danio rerio [19]", "value": 65, "unit": "%"}, {"measurement": "viability at 5 µM", "setting": "PC-12 [20]", "value": 68.6, "unit": "%"}, {"measurement": "Activity", "setting": "Mus musculus [21]", "value": 63.4, "unit": "%"}, {"measurement": "Activity", "setting": "[22]", "value": "Non-Toxic"}, {"measurement": "Activity", "setting": "[23]", "value": "Non-Toxic"}, {"measurement": "viability at 10 µM", "setting": "SH-SY5Y", "value": 72.3, "unit": "%"}, {"measurement": "Activity", "setting": "[24]", "value": "Toxic"}, {"measurement": "inhibition", "setting": "[25]", "value": "Active"}, {"measurement": "Activity", "setting": "Danio rerio [26]", "value": 2.17, "unit": "millimeter/sec"}, {"measurement": "Activity", "setting": "[27]", "value": 93.3, "unit": "%"}]}]}
